This is an account of results in ChEMBL document CHEMBL5725899, “Benzofurans substituted with primary benzamide as HCV inhibitors” (2018).

Some results are limits rather than exact numbers.

This assay can be described thus: HCV Replicon Luciferase Assay: To evaluate compound efficacy, titrated compounds were transferred to sterile 384-well tissue culture treated plates, and the plates were seeded with HCV replicon cells (50 μL at a density of 2.4×10^3 cells/well) in DMEM containing 4% FBS (final DMSO concentration at 0.5%). After 3 days incubation at 37° C., cells were analyzed for Renilla Luciferase activity using the EnduRen substrate (Promega cat #E6485) according to the manufacturer's directions. Briefly, the EnduRen substrate was diluted in DMEM and then added to the plates to a final concentration of 7.5 μM. The plates were incubated for at least 1 h at 37° C. then read on a Viewlux Imager (PerkinElmer) using a luminescence program. The 50% effective concentration (EC50) was calculated using the four-parameter logistic formula noted above.To assess cytotoxicity of compounds, Cell Titer-Blue (Promega) was added to the EnduRen-containing plates and incubated for at least 4 hrs at 37° C. The fluorescence signal from each well was read using a Viewlux Imager. All CC50 values were calculated using the four-parameter logistic formula. To be noted: 72 h.

Regarding `CNC(=O)c1c(-c2ccc(F)cc2)oc2cc(N(CCF)S(C)(=O)=O)c(-c3cccc(C(=O)N[C@H](COC)C4CC4)c3)cc12`, the EC50 was < 0.1 µM. In the case of `CNC(=O)c1c(-c2ccc(F)cc2)oc2cc(N(CCF)S(C)(=O)=O)c(-c3cccc(C(=O)N[C@@H](COC)C4CC4)c3)cc12`, the concentration giving a half-maximal response (EC50) is < 0.1 µM.

By EC50 is commonly meant the concentration needed to bring the measured effect to its halfway point.
